Test systems include RPMI-8226 leukemia; SW-620 colon; OVCAR-3 ovarian; 786-0 renal; EKVX NSCLC; ACHN renal; NCI-H23 lung; KM12 colon; SF-539 CNS; BT-549 breast.
Holding throughout (assay): NCI-60 cell line screen, 48 h

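Method: 48-hour compound exposure of cells in 96-well plates, five concentrations, linear interpolation of endpoints. GI50 = concentration required for 50% inhibition of growth. At the TGI there is no net growth.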

With `C/C(=N/NC(=S)N1CCCCC1)c1ccccc1O`, the TGI in the experiment with RPMI-8226 leukemia, in the experiment on SW-620 colon, in the experiment with OVCAR-3 ovarian, in the experiment on 786-0 renal, with EKVX NSCLC and in the experiment on ACHN renal was over 31.6 µM in each case. Besides, the TGI was over 31.6 µM in the experiment with NCI-H23 lung, over 31.6 µM with KM12 colon, over 100 µM in the experiment with SF-539 CNS and over 100 µM with BT-549 breast.

`C=C1C(O)C2C(=C(CC)C13CC3)C(=O)C(C)(C)C2OC` (stereo not given): the GI50 in the experiment on RPMI-8226 leukemia is 20.6 µM; in the experiment on SW-620 colon, 59.9 µM; with OVCAR-3 ovarian, 40.3 µM; in the experiment with 786-0 renal, over 100 µM; in the experiment on EKVX NSCLC it was 82.6 µM; in the experiment on ACHN renal, 67.8 µM. For the same molecule, the GI50 was 55.6 µM with NCI-H23 lung, 60.9 µM in the experiment on KM12 colon, 54.4 µM in the experiment on SF-539 CNS and over 100 µM with BT-549 breast. Moreover, the TGI in the experiment with RPMI-8226 leukemia was 68 µM; in the experiment on SW-620 colon, over 100 µM; in the experiment on OVCAR-3 ovarian, over 100 µM; in the experiment on 786-0 renal it was over 100 µM; with EKVX NSCLC it was over 100 µM; with ACHN renal it was over 100 µM. In addition, the TGI in the experiment on NCI-H23 lung, in the experiment with KM12 colon, in the experiment on SF-539 CNS and with BT-549 breast was over 100 µM each time.

For the molecule `Cc1cc(NC(=O)NC(=O)c2ccccc2NC(=O)C(C)N)ccc1Oc1ncc(Br)cn1` (stereo not given), the TGI in the experiment with RPMI-8226 leukemia worked out at 61.5 µM; in the experiment on SW-620 colon, 44.4 µM; in the experiment with OVCAR-3 ovarian, 0.111 µM; with 786-0 renal, 9.56 µM; in the experiment with EKVX NSCLC, 28.6 µM; in the experiment with ACHN renal, 27.4 µM. Further, the TGI with NCI-H23 lung worked out at 8.56 µM; in the experiment on KM12 colon, 19.4 µM; in the experiment with SF-539 CNS it was 0.0431 µM; with BT-549 breast, 48.9 µM.

On to `NC(=O)N/N=C1/CCC(O)CC1CC(=O)O` (stereo not given), for which the TGI with RPMI-8226 leukemia, in the experiment on SW-620 colon, with OVCAR-3 ovarian, in the experiment with 786-0 renal, in the experiment with EKVX NSCLC and in the experiment on ACHN renal was over 100 µM in each case. Besides, the TGI in the experiment on NCI-H23 lung, in the experiment with KM12 colon, in the experiment on SF-539 CNS and in the experiment on BT-549 breast was over 100 µM throughout.

Consider `CC(C)CCCC(C)[C@H]1CCC2[C@@H]3CCC4Cc5nc6c(nc5C[C@]4(C)C3CC[C@@]21C)CC1CC[C@@H]2C(CC[C@@]3(C)C2CC[C@@H]3C(C)CCCC(C)C)[C@@]1(C)C6` (stereo not given in full), for which the TGI in the experiment with RPMI-8226 leukemia, in the experiment on SW-620 colon, with OVCAR-3 ovarian, in the experiment with 786-0 renal, with EKVX NSCLC and in the experiment with ACHN renal was over 100 µM throughout. In addition, the TGI in the experiment with NCI-H23 lung, in the experiment with KM12 colon, in the experiment on SF-539 CNS and with BT-549 breast was over 100 µM each time.

For the molecule `COc1cc(C(=O)c2c(-c3ccccc3)oc3c(OC)cccc23)cc(OC)c1OC`, the GI50 is 0.112 µM with RPMI-8226 leukemia; 0.0497 µM with SW-620 colon; 0.0346 µM in the experiment on OVCAR-3 ovarian; 0.073 µM in the experiment with 786-0 renal; 0.0674 µM in the experiment on EKVX NSCLC; 0.0719 µM with ACHN renal. The GI50 in the experiment with NCI-H23 lung is 0.106 µM; in the experiment on KM12 colon, 0.0567 µM; with SF-539 CNS, 0.0293 µM; in the experiment on BT-549 breast, 0.154 µM. Also, the TGI in the experiment on RPMI-8226 leukemia was over 100 µM; in the experiment on SW-620 colon, over 100 µM; in the experiment with OVCAR-3 ovarian, 0.363 µM; with 786-0 renal, 3.1 µM; in the experiment with EKVX NSCLC it was over 100 µM; in the experiment on ACHN renal, over 100 µM. The TGI with NCI-H23 lung was 16.8 µM; with KM12 colon, over 100 µM; with SF-539 CNS it was 0.173 µM; with BT-549 breast, 1.5 µM.

With `CC1=C(C(=O)Nc2ccc3n[nH]c(C)c3c2)C(c2ccc(C(F)(F)F)cc2)CC(=O)N1` (stereo not given), the GI50 is over 25 µM with RPMI-8226 leukemia; 11 µM in the experiment on SW-620 colon; over 25 µM in the experiment on OVCAR-3 ovarian; over 25 µM in the experiment with 786-0 renal; 5.89 µM with EKVX NSCLC; over 25 µM in the experiment on ACHN renal. The GI50 was over 17.6 µM in the experiment on NCI-H23 lung, 14 µM with KM12 colon, 7.12 µM with SF-539 CNS and 6.96 µM in the experiment with BT-549 breast. Besides, the TGI with RPMI-8226 leukemia, with SW-620 colon, in the experiment on OVCAR-3 ovarian, in the experiment on 786-0 renal, in the experiment on EKVX NSCLC and in the experiment with ACHN renal was over 25 µM each time. Also, the TGI with NCI-H23 lung, with KM12 colon, with SF-539 CNS and in the experiment on BT-549 breast was over 25 µM in each case.

Turning to `CC1=NN(C(=O)c2ccccc2O)C(=O)/C1=C/c1ccc(O)cc1`, the TGI was over 100 µM with RPMI-8226 leukemia; over 100 µM in the experiment with SW-620 colon; 3.43 µM in the experiment on OVCAR-3 ovarian; over 100 µM in the experiment on 786-0 renal; over 100 µM in the experiment on EKVX NSCLC; over 100 µM in the experiment with ACHN renal. Besides, the TGI in the experiment with NCI-H23 lung was 19.9 µM; with KM12 colon it was over 100 µM; in the experiment on SF-539 CNS, 6.73 µM; in the experiment with BT-549 breast, over 100 µM.

On to `COc1ccc(C/C(C)=C(/c2ccc(OCCN3CCCCC3)cc2)c2ccc(OC(=O)NCc3ccccc3)cc2)cc1`, for which the GI50 was 0.399 µM with RPMI-8226 leukemia; 0.419 µM in the experiment with SW-620 colon; 0.413 µM in the experiment on OVCAR-3 ovarian; 0.316 µM with 786-0 renal; 0.37 µM with EKVX NSCLC; 0.434 µM with ACHN renal. Moreover, the GI50 in the experiment with NCI-H23 lung is 0.425 µM; in the experiment with KM12 colon, 0.44 µM; in the experiment on SF-539 CNS it was 0.401 µM; in the experiment on BT-549 breast it was 0.379 µM. Also, the TGI is 0.963 µM with RPMI-8226 leukemia; 0.808 µM in the experiment on SW-620 colon; 0.762 µM with OVCAR-3 ovarian; 0.674 µM with 786-0 renal; 0.773 µM in the experiment with EKVX NSCLC; 0.78 µM with ACHN renal. The TGI with NCI-H23 lung amounted to 0.838 µM; in the experiment on KM12 colon, 0.826 µM; in the experiment with SF-539 CNS, 0.766 µM; with BT-549 breast, 0.763 µM.

Consider `O=C1/C(=C/c2ccccc2)CN(C(=O)CCN2CCOCC2)C/C1=C\c1ccccc1`, for which the TGI in the experiment on RPMI-8226 leukemia is 3.3 µM; in the experiment with SW-620 colon, 1.55 µM; in the experiment with OVCAR-3 ovarian, 11.5 µM; with 786-0 renal, 3.98 µM; with EKVX NSCLC it was 26.7 µM; in the experiment on ACHN renal, 11.3 µM. The TGI with NCI-H23 lung worked out at 6.13 µM; in the experiment on KM12 colon, 2.99 µM; in the experiment on SF-539 CNS, 4.2 µM; with BT-549 breast, 4.71 µM.

In the case of `COC(C(=O)NN)c1ccccc1` (stereo not given), the TGI with RPMI-8226 leukemia, in the experiment with SW-620 colon, in the experiment with OVCAR-3 ovarian, with 786-0 renal, in the experiment with EKVX NSCLC and in the experiment on ACHN renal was over 100 µM in each case. In addition, the TGI in the experiment on NCI-H23 lung, in the experiment with KM12 colon, with SF-539 CNS and with BT-549 breast was over 100 µM throughout.
